Results as given in patent publication US7932270B2 (Cytokinetics, Inc., priority 2006, dated 2011).
pIC50: −log10 of the molar value.

These molecules were tested against T1, chicken gizzard smooth muscle myosin subfragment-1 chemically crosslinked to cardiac or skeletal actin (Gallus gallus, UniProt P10587) (assay: Smooth muscle myosin ATPase dose response assay (pyruvate kinase/horseradish peroxidase/pyruvate oxidase-coupled, amplex red fluorescence)). Conditions: read-out: IC50 Arithmetic Mean.
T1 construct: chicken gizzard smooth muscle myosin subfragment-1; from tissue; host or cells: chicken gizzard
T1 sequence (P02607 2-151): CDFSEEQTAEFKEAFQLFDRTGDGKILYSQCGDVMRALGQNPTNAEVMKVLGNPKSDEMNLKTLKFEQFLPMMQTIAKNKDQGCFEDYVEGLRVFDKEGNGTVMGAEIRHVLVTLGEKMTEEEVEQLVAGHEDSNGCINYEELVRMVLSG
T1 sequence (P10587 84-789): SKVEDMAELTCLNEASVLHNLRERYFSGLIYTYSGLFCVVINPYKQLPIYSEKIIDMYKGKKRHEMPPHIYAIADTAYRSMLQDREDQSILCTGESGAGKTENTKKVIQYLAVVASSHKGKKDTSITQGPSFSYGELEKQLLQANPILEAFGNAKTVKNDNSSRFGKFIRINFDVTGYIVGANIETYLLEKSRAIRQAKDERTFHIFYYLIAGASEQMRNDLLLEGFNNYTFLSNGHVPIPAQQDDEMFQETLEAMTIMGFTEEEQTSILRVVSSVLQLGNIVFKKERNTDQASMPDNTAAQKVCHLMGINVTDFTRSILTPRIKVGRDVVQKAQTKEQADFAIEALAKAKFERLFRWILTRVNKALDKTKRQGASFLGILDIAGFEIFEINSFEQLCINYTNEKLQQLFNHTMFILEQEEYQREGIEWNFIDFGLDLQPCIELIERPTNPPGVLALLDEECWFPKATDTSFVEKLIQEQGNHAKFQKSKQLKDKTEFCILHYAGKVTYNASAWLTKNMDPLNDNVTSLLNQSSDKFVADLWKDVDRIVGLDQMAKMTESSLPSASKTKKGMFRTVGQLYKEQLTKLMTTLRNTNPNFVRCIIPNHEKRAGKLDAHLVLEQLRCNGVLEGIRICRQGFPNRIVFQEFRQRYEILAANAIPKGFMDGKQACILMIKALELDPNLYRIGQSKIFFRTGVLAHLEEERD
Format: biochemical
Outline: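 Inhibition is measured in a peroxidase/pyruvate oxidase-linked format at pH 7.00 and 22° C, 0.15 mM ATP final. Myosin input is titrated to a target turnover since active fraction differs between preparations.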
With `N#Cc1ccccc1-c1ccc(C(=O)NCC(N)=O)c(NCCc2cccc(F)c2)n1` [N-(carbamoylmethyl)(6-(2-cyanophenyl)-2-{[2-(3-fluorophenyl)ethyl]amino}(3-pyridyl))carboxamide] the pIC50 was 6.98.
For `NC(=O)CNC(=O)c1ccc(-c2ccccc2)nc1NCCc1ccccc1` [N-(carbamoylmethyl){6-phenyl-2-[(2-phenylethyl)amino](3-pyridyl)}carboxamide], the pIC50 was 6.09.
Molecule `O=C(NCc1ncc[nH]1)c1ccc(-c2ccccc2)nc1NCCc1ccccn1` [N-(imidazol-2-ylmethyl){6-phenyl-2-[(2-(2-pyridyl)ethyl)amino](3-pyridyl)}carboxamide] has a pIC50 of 5.21.
In the case of `O=C(NCc1ccno1)c1ccc(-c2ccccc2)nc1NCCc1ccccn1` [N-(isoxazol-5-ylmethyl){6-phenyl-2-[(2-(2-pyridyl)ethyl)amino](3-pyridyl)}carboxamide], the pIC50 was 6.08.
Work on `CC(C)NC(=O)c1ccc(-c2ccccc2)nc1NCCc1ccccn1` [N-(methylethyl){6-phenyl-2-[(2-(2-pyridyl)ethyl)amino](3-pyridyl)}carboxamide] yielded a pIC50 of 4.88.
`O=C(NCC1CCCO1)c1ccc(-c2ccccc2)nc1NCCc1ccccn1` (stereo not shown) [N-(oxolan-2-ylmethyl){6-phenyl-2-[(2-(2-pyridyl)ethyl)amino](3-pyridyl)}carboxamide] showed a pIC50 of 4.96.
With `NCCNc1ncccc1CNC(=O)c1ccc(-c2cn[nH]c2)nc1NCCc1cccc(F)c1` [N-({2-[(2-aminoethyl)amino](3-pyridyl)}methyl)(2-{[2-(3-fluorophenyl)ethyl]amino}-6-pyrazol-4-yl(3-pyridyl))carboxamide] the pIC50 was 6.91.
Molecule `N#Cc1ccccc1-c1ccc(C(=O)NCc2cccnc2NCCN)c(NCCc2cccc(F)c2)n1` [N-({2-[(2-aminoethyl)amino](3-pyridyl)}methyl)(6-(2-cyanophenyl)-2-{[2-(3-fluorophenyl)ethyl]amino}(3-pyridyl))carboxamide] has a pIC50 of 7.89.
`NCCCNc1ncccc1CNC(=O)c1ccc(-c2cn[nH]c2)nc1NCCc1cccc(F)c1` [N-({2-[(3-aminopropyl)amino](3-pyridyl)}methyl)(2-{[2-(3-fluorophenyl)ethyl]amino}-6-pyrazol-4-yl(3-pyridyl))carboxamide] gave a pIC50 of 6.89.
In the case of `N#Cc1ccccc1-c1ccc(C(=O)NCc2cccnc2NCCCN)c(NCCc2cccc(F)c2)n1` [N-({2-[(3-aminopropyl)amino](3-pyridyl)}methyl)(6-(2-cyanophenyl)-2-{[2-(3-fluorophenyl)ethyl]amino}(3-pyridyl))carboxamide], the pIC50 was 7.77.
`CN(C)C(=NCc1cncc(CNC(=O)c2ccc(-c3ccccc3C#N)nc2NCCc2cccc(F)c2)c1)N(C)C` [N-({5-[3,3-bis(dimethylamino)-2-azaprop-2-enyl](3-pyridyl)}methyl)(6-(2-cyanophenyl)-2-{[2-(3-fluorophenyl)ethyl]amino}(3-pyridyl))carboxamide] showed a pIC50 of 5.57.
Work on `CN(C)C(=NCc1cccc(CNC(=O)c2ccc(-c3ccccc3C#N)nc2NCCc2cccc(F)c2)n1)N(C)C` [N-({6-[3,3-bis(dimethylamino)-2-azaprop-2-enyl](2-pyridyl)}methyl)(6-(2-cyanophenyl)-2-{[2-(3-fluorophenyl)ethyl]amino}(3-pyridyl))carboxamide] yielded a pIC50 of 6.55.
In the case of `NCCNc1cccc(CNC(=O)c2ccc(-c3cn[nH]c3)nc2NCCc2cccc(F)c2)n1` [N-({6-[(2-aminoethyl)amino](2-pyridyl)}methyl)(2-{[2-(3-fluorophenyl)ethyl]amino}-6-pyrazol-4-yl(3-pyridyl))carboxamide], the pIC50 was 7.70.
`N#Cc1ccccc1-c1ccc(C(=O)NCc2cccc(NCCN)n2)c(NCCc2cccc(F)c2)n1` [N-({6-[(2-aminoethyl)amino](2-pyridyl)}methyl)(6-(2-cyanophenyl)-2-{[2-(3-fluorophenyl)ethyl]amino}(3-pyridyl))carboxamide] gave a pIC50 of 8.15.
`NCCCNc1cccc(CNC(=O)c2ccc(-c3cn[nH]c3)nc2NCCc2cccc(F)c2)n1` [N-({6-[(3-aminopropyl)amino](2-pyridyl)}methyl)(2-{[2-(3-fluorophenyl)ethyl]amino}-6-pyrazol-4-yl(3-pyridyl))carboxamide] was tested, and the pIC50 was 7.74.
Work on `N#Cc1ccccc1-c1ccc(C(=O)NCc2cccc(NCCCN)n2)c(NCCc2cccc(F)c2)n1` [N-({6-[(3-aminopropyl)amino](2-pyridyl)}methyl)(6-(2-cyanophenyl)-2-{[2-(3-fluorophenyl)ethyl]amino}(3-pyridyl))carboxamide] yielded a pIC50 of 8.30.
Work on `N#Cc1ccccc1-c1ccc(C(=O)NC[C@H]2CCC(=O)N2CCCCN2C(=O)c3ccccc3C2=O)c(NCCc2cccc(F)c2)n1` [N-({(2R)-1-[4-(1,3-dioxobenzo[c]azolin-2-yl)butyl]-5-oxopyrrolidin-2-yl}methyl)(6-(2-cyanophenyl)-2-{[2-(3-fluorophenyl)ethyl]amino}(3-pyridyl))carboxamide] yielded a pIC50 of 6.42.
Molecule `N#Cc1ccccc1-c1ccc(C(=O)NC[C@H]2CCCC(=O)N2CCCCN2C(=O)c3ccccc3C2=O)c(NCCc2cccc(F)c2)n1` [N-({(2R)-1-[4-(1,3-dioxobenzo[c]azolin-2-yl)butyl]-6-oxo(2-piperidyl)}methyl)(6-(2-cyanophenyl)-2-{[2-(3-fluorophenyl)ethyl]amino}(3-pyridyl))carboxamide] has a pIC50 of 6.10.
`N#Cc1ccccc1-c1ccc(C(=O)NC[C@H]2CCC(=O)N2CCCCCN2C(=O)c3ccccc3C2=O)c(NCCc2cccc(F)c2)n1` [N-({(2R)-1-[5-(1,3-dioxobenzo[c]azolin-2-yl)pentyl]-5-oxopyrrolidin-2-yl}methyl)(6-(2-cyanophenyl)-2-{[2-(3-fluorophenyl)ethyl]amino}(3-pyridyl))carboxamide] showed a pIC50 of 6.58.
With `N#Cc1ccccc1-c1ccc(C(=O)NC[C@H]2CCCCN2S(=O)(=O)CCN)c(NCCc2cccc(F)c2)n1` [N-({(2R)-1-[(2-aminoethyl)sulfonyl](2-piperidyl)}methyl)(6-(2-cyanophenyl)-2-{[2-(3-fluorophenyl)ethyl]amino}(3-pyridyl))carboxamide] the pIC50 was 6.75.
`N#Cc1ccccc1-c1ccc(C(=O)NC[C@H]2CCCN2S(=O)(=O)CCN)c(NCCc2cccc(F)c2)n1` [N-({(2R)-1-[(2-aminoethyl)sulfonyl]pyrrolidin-2-yl}methyl)(6-(2-cyanophenyl)-2-{[2-(3-fluorophenyl)ethyl]amino}(3-pyridyl))carboxamide] showed a pIC50 of 7.15.
In the case of `N#Cc1ccccc1-c1ccc(C(=O)NC[C@H]2CCCCN2S(=O)(=O)CCCN)c(NCCc2cccc(F)c2)n1` [N-({(2R)-1-[(3-aminopropyl)sulfonyl](2-piperidyl)}methyl)(6-(2-cyanophenyl)-2-{[2-(3-fluorophenyl)ethyl]amino}(3-pyridyl))carboxamide], the pIC50 was 6.43.
Molecule `N#Cc1ccccc1-c1ccc(C(=O)NC[C@H]2CCCN2S(=O)(=O)CCCN)c(NCCc2cccc(F)c2)n1` [N-({(2R)-1-[(3-aminopropyl)sulfonyl]pyrrolidin-2-yl}methyl)(6-(2-cyanophenyl)-2-{[2-(3-fluorophenyl)ethyl]amino}(3-pyridyl))carboxamide] has a pIC50 of 6.63.
In the case of `N#Cc1ccccc1-c1ccc(C(=O)NCCOCCN)c(NCCc2cccc(F)c2)n1` [N-[2-(2-aminoethoxy)ethyl](6-(2-cyanophenyl)-2-{[2-(3-fluorophenyl)ethyl]amino}(3-pyridyl))carboxamide], the pIC50 was 5.79.
For `CC(C)(C)OC(=O)N[C@@H](CCCN)C(=O)N1CC[C@@H]1CNC(=O)c1ccc(-c2ccccc2C#N)nc1NCCc1cccc(F)c1` [N-[2-((2R)-2-([(6-(2-cyanophenyl)-2-{[2-(3-fluorophenyl)ethyl]amino}(3-pyridyl))carbonylamino]methyl}azetidinyl)(1S)-1-(3-aminopropyl)-2-oxoethyl](tert-butoxy)carboxamide], the pIC50 was 5.87.
`Cn1cc(-c2nc(NCCc3cccc(F)c3)c(C(=O)NC[C@H]3CCCN3C(=O)[C@H](CO)NC(=O)OC(C)(C)C)cc2F)cn1` [N-[2-((2R)-2-{[(5-fluoro-2-{[2-(3-fluorophenyl)ethyl]amino}-6-(1-methylpyrazol-4-yl)(3-pyridyl))carbonylamino]methyl}pyrrolidinyl)(1S)-1-(hydroxymethyl)-2-oxoethyl](tert-butoxy)carboxamide] gave a pIC50 of 5.92.
For `C[C@H](NC(=O)OC(C)(C)C)C(=O)N1CCC[C@@H]1CNC(=O)c1cc(F)c(-c2cnn(C)c2)nc1NCCc1cccc(F)c1` [N-[2-((2R)-2-{[(5-fluoro-2-{[2-(3-fluorophenyl)ethyl]amino}-6-(1-methylpyrazol-4-yl)(3-pyridyl))carbonylamino]methyl}pyrrolidinyl)(1S)-1-methyl-2-oxoethyl](tert-butoxy)carboxamide], the pIC50 was 5.71.
Molecule `CC(C)(C)OC(=O)N[C@@H](CO)C(=O)N1CC[C@@H]1CNC(=O)c1ccc(-c2ccccc2C#N)nc1NCCc1cccc(F)c1` [N-[2-((2R)-2-{[(6-(2-cyanophenyl)-2-{[2-(3-fluorophenyl)ethyl]amino}(3-pyridyl))carbonylamino]methyl}azetidinyl)(1S)-1-(hydroxymethyl)-2-oxoethyl](tert-butoxy)carboxamide] has a pIC50 of 5.61.
For `C[C@H](NC(=O)OC(C)(C)C)C(=O)N1CCC[C@@H]1CNC(=O)c1ccc(-c2ccccc2C#N)nc1NCCc1cccc(F)c1` [N-[2-((2R)-2-{[(6-(2-cyanophenyl)-2-{[2-(3-fluorophenyl)ethyl]amino}(3-pyridyl))carbonylamino]methyl}pyrrolidinyl)(1S)-1-methyl-2-oxoethyl](tert-butoxy)carboxamide], the pIC50 was 5.49.
For `CN(C)CCNC(=O)c1ccc(-c2ccccc2C#N)nc1NCCc1cccc(F)c1` [N-[2-(dimethylamino)ethyl](6-(2-cyanophenyl)-2-{[2-(3-fluorophenyl)ethyl]amino}(3-pyridyl))carboxamide], the pIC50 was 5.37.
With `CN(C)CCNC(=O)CNC(=O)c1ccc(-c2ccccc2C#N)nc1NCCc1cccc(F)c1` [N-[2-(dimethylamino)ethyl]-2-[(6-(2-cyanophenyl)-2-{[2-(3-fluorophenyl)ethyl]amino}(3-pyridyl))carbonylamino]acetamide] the pIC50 was 5.03.
